In patent US20240140953A1, “INHIBITORS OF MENIN-MLL INTERACTION” (BIOMEA FUSION, INC., priority 2018, published 2024):
Where two headings read alike, the source gives them in different places. One block for each compound: values may come before it.

Legend:
Menin-MLL = Menin-MLL (Homo sapiens (Human), UniProt O00255); assay: Menin-MLL in vitro inhibitory activity (Example 101a, Table 2); type: cell-based
MV-4-11 = assay: Long term proliferation assay (Table 3A), MV-4-11; type: cell-based; conditions: Homo sapiens, MV4-11
Protocol: (§1) Example 5b: IC50 determination of compounds of invention in various cell lines (Long Term Proliferation Assay)
(§2) The following 5 cell lines are used or can be used for the long term proliferation assay.
(§3) Compounds of invention are tested in the 5 suspension lines by 14-day long-term proliferation assay.
(§4) The compound is tested in 10-pt dose titration (client will determine the starting concentration and the dilution scheme) and the final DMSO concentration is kept at 0.2%.
(§5) Vehicle and media control are also included. All treatments are done in triplicate.
(§6) 3 plates are used for each cell line and 15 plates are used for the 5 cell lines.
(§7) • 1) On Day 0, in a flat bottom 96-well plate, add 100 μL of cells per well at the densities optimized. • 2) Prepare compounds in DMSO at 500× final concentration. Dilute the compounds with DMSO at the dilution. • 3) Dilute the compounds in media at 3×final concentration. Add 50 μL of compound or DMSO at 3× final concentration to each well. Final volume in each well is 150 μL, and final concentration of DMSO is 0.2%. Also include 3 untreated control wells, by adding 50 μL of media alone. 4) Incubate plates for 96 hours. • 5) Count the cells using the Acumen, with capabilities for 96-well plates. Pipette cells up and down to mix in each well, and add desired volume of cells to a new flat bottom poly-D-lysine 96-well plate. Add Calcein AM at 1 μM final concentration. Let cells sit at RT for 10 mins followed by a quick spin to get cells settled on the bottom of the wells. Incubate the plate for additional 40 mins in the incubator. Take out the plate and read by Acumen. Calculate the cell numbers taken into account the dilution factors. • 6) Split the master plate. To do this take the total viable cell count calculated using step 5). Take the average of the replicates for each dose in order to be used in splitting the cells. • 7) Use a 96 well V-bottom plate to spin down the cells to remove old media and compound to split the cells. Based on the split ratio place the proper amount of media and cells into the V-bottom plate, and spin the plate at 1100 rpm for 5 minutes. • 8) Following the spin remove the media, careful not to disturb the cellpellet. • 9) Re-suspend pellet in 100 μL fresh media, and add to a new 96-well flat bottom plate. • 10) Add fresh compound, in the same manner as Step 3). • 11) Incubate plates for 72 hours. Repeat steps 5)-10) on Day 7. • 12) Incubate plates for 96 hours. Repeat Step 5)-10) on Day 11. • 13) Incubate 72 hours and repeat step 5) to take a final count. • 14) Data Analysis
(§8) To calculate growth for days 4, 7, 11, and 14: • Calculate the split factor for day 4 to 7, day 7 to 11, and day 11-14.

MOLM-13 [1] = assay: Long term proliferation assay (Table 3A), MOLM-13; type: cell-based; conditions: Homo sapiens
Protocol: as §1, §2, §3, §4, §5, §6, §7, §8

menin = menin (Homo sapiens (Human), UniProt O00255); assay: Kd (Table 3A); type: binding
menin, sequence (O00255 whole entry, species assumed): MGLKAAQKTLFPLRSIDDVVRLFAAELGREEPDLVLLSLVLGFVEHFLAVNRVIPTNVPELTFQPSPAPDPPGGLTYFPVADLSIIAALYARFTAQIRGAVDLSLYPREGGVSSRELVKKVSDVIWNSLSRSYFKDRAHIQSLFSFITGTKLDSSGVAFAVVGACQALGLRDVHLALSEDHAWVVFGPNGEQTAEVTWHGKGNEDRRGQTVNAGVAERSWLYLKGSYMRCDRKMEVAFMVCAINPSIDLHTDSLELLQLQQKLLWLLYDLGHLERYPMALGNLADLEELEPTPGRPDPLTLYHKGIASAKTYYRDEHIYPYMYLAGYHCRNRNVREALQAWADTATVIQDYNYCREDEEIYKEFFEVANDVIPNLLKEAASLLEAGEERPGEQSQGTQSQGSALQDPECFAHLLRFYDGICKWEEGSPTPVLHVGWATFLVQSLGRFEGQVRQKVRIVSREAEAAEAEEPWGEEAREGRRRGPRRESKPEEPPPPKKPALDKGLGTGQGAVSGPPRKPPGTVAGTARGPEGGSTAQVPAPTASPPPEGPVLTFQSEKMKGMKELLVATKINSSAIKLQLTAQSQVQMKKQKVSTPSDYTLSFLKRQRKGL

KG-1 [2] = assay: Long term proliferation, Cell Titer-Glo (Table 3B), KG-1; type: cell-based; conditions: Homo sapiens, KG-1, Cell Titer-Glo
MOLM-13 [3] = assay: Long term proliferation, Cell Titer-Glo (Table 3B), MOLM-13; type: cell-based; conditions: Homo sapiens, MOLM-13, Cell Titer-Glo
OCI-AML-3 [4] = assay: Long term proliferation, Cell Titer-Glo (Table 3B), OCI-AML-3; type: cell-based; conditions: Homo sapiens, OCI-AML-3, Cell Titer-Glo
MV4-11 [5] = assay: Long term proliferation, Cell Titer-Glo (Table 3B), MV4-11; type: cell-based; conditions: Homo sapiens, MV4-11, Cell Titer-Glo
KG-1 [6] = assay: Long term proliferation, InCell (Table 3C), KG-1; type: cell-based; conditions: Homo sapiens, KG-1, InCell
Protocol: as §3, §4, §5, §7, §8

MOLM-13 [7] = assay: Long term proliferation, InCell (Table 3C), MOLM-13; type: cell-based; conditions: Homo sapiens, MOLM-13, InCell
Protocol: as §3, §4, §5, §7, §8

OCI-AML-3 [8] = assay: Long term proliferation, InCell (Table 3C), OCI-AML-3; type: cell-based; conditions: Homo sapiens, OCI-AML-3, InCell
Protocol: as §3, §4, §5, §7, §8

MV4-11 [9] = assay: Long term proliferation, InCell (Table 3C), MV4-11; type: cell-based; conditions: Homo sapiens, MV4-11, InCell
Protocol: as §3, §4, §5, §7, §8

[10] = MV-4-11, Day 4, read-out: MV-4-11 Day 4 IC50
[11] = MV-4-11, Day 11, read-out: MV-4-11 Day 11 IC50
[12] = 96 h, MOLM-13, Day 4, read-out: MOLM-13 Day 4 IC50
[13] = 264 h, MOLM-13, Day 11, read-out: MOLM-13 Day 11 IC50
[14] = 96 h, Day 4, read-out: Day 4 IC50
[15] = 168 h, Day 7, read-out: Day 7 IC50
[16] = 264 h, Day 11, read-out: Day 11 IC50
[17] = 336 h, Day 14, read-out: Day 14 IC50

Menin-MLL, sequence (O00255 whole entry): as the sequence (O00255 whole entry, species assumed) above

IC50 (Menin-MLL): 240 nM
IC50 (MV-4-11; [10]): 174 nM
IC50 (MV-4-11; [11]): 55 nM
IC50 (MOLM-13 [1]; [12]): 74 nM
IC50 (MOLM-13 [1]; [13]): 54 nM
Kd (menin): > 1000 nM
SMILES: O=C(Nc1ccc(-c2cc3c(N4CCOCC4)ncnc3[nH]2)cc1)Nc1cc(-c2cccnc2)no1 [Compound 2, 1-(4-(4-morpholino-7H-pyrrolo[2,3-d]pyrimidin-6-yl)phenyl)-3-(3-(pyridin-3-yl)isoxazol-5-yl)urea]

IC50 (MV-4-11; [10]): 355 nM
IC50 (MV-4-11; [11]): 71 nM
IC50 (MOLM-13 [1]; [12]): 224 nM
IC50 (MOLM-13 [1]; [13]): 55 nM
Kd (menin): 250 nM
IC50 (MOLM-13 [3]; [14]): 320 nM
IC50 (MOLM-13 [3]; [15]): 200 nM
IC50 (MOLM-13 [3]; [16]): 150 nM
IC50 (MOLM-13 [3]; [17]): 250 nM
IC50 (OCI-AML-3 [4]; [14]): 590 nM
IC50 (OCI-AML-3 [4]; [15]): 560 nM
IC50 (OCI-AML-3 [4]; [16]): 550 nM
IC50 (OCI-AML-3 [4]; [17]): 550 nM
IC50 (MV4-11 [5]; [14]): 540 nM
IC50 (MV4-11 [5]; [15]): 100 nM
IC50 (MV4-11 [5]; [16]): 200 nM
IC50 (MV4-11 [5]; [17]): 60 nM
IC50 (MOLM-13 [7]; [14]): 370 nM
IC50 (MOLM-13 [7]; [16]): 190 nM
IC50 (OCI-AML-3 [8]; [14]): 490 nM
IC50 (OCI-AML-3 [8]; [16]): 540 nM
IC50 (MV4-11 [9]; [14]): 350 nM
IC50 (MV4-11 [9]; [16]): 280 nM
SMILES: O=C(Nc1ccc(-c2cc3c(N4CCOCC4)ncnc3[nH]2)cc1)Nc1cc(-c2ccncc2)no1 [Compound 8, 1-{4-[4-(morpholin-4-yl)-7H-pyrrolo[2,3-d]pyrimidin-6-yl]phenyl}-3-[3-(pyridin-4-yl)-1,2-oxazol-5-yl]urea]
IC50 (KG-1 [2]; [14]): 4900 nM
IC50 (KG-1 [2]; [15]): 2950 nM
IC50 (KG-1 [2]; [16]): 2140 nM
IC50 (KG-1 [2]; [17]): 680 nM
IC50 (KG-1 [6]; [14]): 3240 nM
IC50 (KG-1 [6]; [16]): 2090 nM
